Experiment [1] relates to pyramidal neurons of the infralimbic cortex (ILC) of scPCP mice. As to the kind of experiment: GABAA reversal potential (EGABA), perforated patch recordings in acute mPFC slices. It is filed as cell-based. Conditions: bumetanide 0.3 mg/kg ip 30-40 min before dissection, 10 uM perfused into mPFC slice in incubation and recording chambers. The procedure:
FIG. 4. (A) Left Panels: Example traces of GABAA current response by electrical stimulation in mPFC pyramidal neurons in control (top panel, black) and in scPCP (bottom, red). Bipolar electrode was put in layer 1, 100-200 um apart from recording site within layer2/3 with presence of 3 mM kynurenic acid to block any glutamatergic synaptic currents. The response was evoked by the same size of single stimulus (0.2-1 mA, 0.2 ms) at five different holding voltages (−100, −80, −60, −40, −20 mV) for each neuron. For each voltage, a neuron was tested multiple times and those 5-10 traces tested at the same voltage were averaged later for peak analysis. […] Right Panels: Example GABAA reversal potential (EGABA) of a neuron in control (top panel, black) and in scPCP (bottom, red) calculated from traces shown in (A). For the individual neuron, the peak size of current responses was measured (maximal current peak if the evoked response is positive while minimal current peak if negative) and plotted by holding voltages. […] Dotted gray lines to present average resting potentials for each group, which were measured by whole-cell patch recordings from separated neuron groups (each n>7). […] Dotted gray lines represent the resting potentials, which were measured by whole-cell patch recordings in different sets of experiment (each n>7). […]

Another experiment deals with scPCP mice. Description: Novel object recognition (NOR) test in subchronic phencyclidine (scPCP) mice. In kind it is in vivo, C57BL/6J mice. Conditions: for Discrimination index, novel object recognition (rescue of scPCP-induced NOR deficit): male C57BL/6J mice. Here is the method:
FIG. 7. Bumetanide treatment rescues the cognitive impairment in scPCP mice. Discrimination index calculated from novel object recognition tests. […] 10 mice were measured for each experimental group.
FIG. 8. Bumetanide rescues Novel Object Recognition task in female scPCP mice. […] Data are from 9 mice per group. One-way ANOVA followed by post-hoc bonferroni correction was done where significance was observed. p<0.01. (Additional data not shown).
To begin filling this gap, here we took advantage of the subchronic phencyclidine (scPCP) treatment, which is a well-established established rodent model of cognitive deficits in schizophrenia (Jentsch and Roth, 1999; Steeds et al. 2015) and performed patch clamp recordings from pyramidal neurons in acute slices of the IL cortex (ILC) and PL cortex (PLC). (FIG. 1).
Routine for mPFC recording. 3 week-old mice were injected with saline (vehicle) or PCP (0.1 mg/kg) two times a day for 7 consecutive days and rested for another 7 days without injections. They were then sacrificed for recordings within 7 days.

Experiment [2] has as its system 16p11.2DUP mice. As to the kind of experiment: Novel object recognition in 16p11.2 duplication mouse model. In kind it is in vivo. Conditions: 0.1 mg/kg, ip, p<0.001. The text has this:
(§1) (See Yamasaki et al., “Alpha-CaMKII deficiency causes immature dentate gyrus, a novel candidate endophenotype of psychiatric disorders,” Molecular Brain, 1 (2008) 6; and McCarthy et al., “Microduplications of 16p11.2 are associated with schizophrenia,” Nat. Gene., 41 (2009) 1223-1227; respectively). Both models are relevant to human conditions. CaMK2A loss causes cognitive dysfunction and has been implication in psychiatric disorders including schizophrenia. (See Yamasaki et al., “Alpha-CaMKII deficiency causes immature dentate gyrus, a novel candidate endophenotype of psychiatric disorders,” Molecular Brain, 1 (2008) 6; Kool et al., “CAMK2-dependent Signaling in Neurons is Essential for Survival,” J. Neuroscience: the official journal of the Society for Neuroscience, 39 (2019) 5424-5439; and Papaleo et al., “Mouse models of genetic effects on cognition: relevance to schizophrenia,” Neuropharmacology, 62 (2012) 1204-1220). […] (See Niarchou et al., “Psychiatric disorders in children with 16p11.2 deletion and duplication,” Translational psychiatry, 9 (2019) 8). […] (FIG. 9).

Experiment [3] concerns 16p11.2DUP mice. Description: Y maze in 16p11.2 duplication mouse model. In kind it is in vivo. Conditions: 0.1 mg/kg, ip, p<0.001.
Text: as §1

In experiment [4] the test system is CaMK2A+/- mice. It is filed as in vivo. Conditions: for Discrimination index, rescue of NOR deficit, single agent at the dose used in the combination: CaMKIIα+/- mice, agent alone.
Text: as §1

In experiment [5] the test system is CaMK2A+/- mice. Description: Y maze in CaMK2A+/- mouse model. It is filed as in vivo. To be noted: 0.1 mg/kg, ip, p<0.001.
Text: as §1

The subject of experiment [6] is scPCP-treated mice subjected to chronic unpredictable stress. As to the kind of experiment: Memory deficit in scPCP-treated mice subjected to chronic unpredictable stress (CUS). It is filed as in vivo. Conditions: chronic unpredictable stress 21 days, 0.1 mg/kg. An excerpt: Bumetanide acts by blocking the NKCC1 cation-chloride cotransporter and causes the reversal potential of the GABAA-mediated current to become more hyperpolarized (thus the inhibitory effect becomes stronger). […] Most importantly, in-vivo administration of bumetanide rescues cognitive function in PCP mice and also prevents enduring deficit of cognitive function.

The subject of a further experiment is scPCP-treated mice. As to the kind of experiment: PCP- and amphetamine-induced increase in locomotor activity in scPCP-treated mice. It is filed as in vivo. Conditions: bumetanide 0.3 mg/ml, icy. An excerpt: This can be interpreted as evidence for ability to treat delusions and hallucinations in psychotic disorders, including schizophrenia, major depression, bipolar disorder, various dementias, including vascular dementia and other neurodegenerative disorders. These finding have immediate translational value, as bumetanide is an already approved drug that could be promptly used to improve cognition in patients with cognitive impairment, psychosis, or negative symptoms in the disorders cited above.

For experiment [7], the system named is PCP model of cognitive impairment. As to the kind of experiment: Prevention of development of cognitive impairment, given prior to PCP treatment. In kind it is in vivo, mice. Conditions: given prior to one week's treatment with PCP. The text has this: Bumetanide prevented the development of cognitive impairment when give prior to one weeks treatment with PCP. This is evidence that bumetanide could prevent the onset of cognitive impairment in schizophrenia and bipolar disorder. […] The discovery of these synergistic actions which will have value in the treatment of many neuropsychiatric disorders. Neurosteroids such as allopregnanolone is a GABA A agonist which could be used clinically with bumetanide to treat post-partum depression, other forms of depression.

Another experiment relates to PCP treated mouse. Description: Social interaction in the PCP treated mouse. In kind it is in vivo.

`CCCCNc1cc(C(=O)O)cc(S(N)(=O)=O)c1Oc1ccccc1` [bumetanide]: the “GABAA reversal potential in layer 2/3 and layer 5 of ILC” value in [1] is “normalizes”. Moreover, the “Performance in the novel object recognition task” value in the experiment with scPCP mice (PCP-treated mice, oral administration of a single dose (FIG. 7)) is “completely rescues”. Besides, the “Novel Object Recognition test (rescue of scPCP-induced deficits)” value in the experiment on scPCP mice (female C57BL/6J mice, single dose IP, p<0.01) is on record as “significantly rescued”. For the same molecule, the “Discrimination index, novel object recognition (rescue of scPCP-induced NOR deficit)” value in the experiment on scPCP mice (0.1 mg/kg, ip) is on record as “completely rescues”; with scPCP mice (0.3 mg/ml, icy), “completely rescues”. The NOR performance result in the experiment with 16p11.2DUP mice [2] is given as “completely rescued”; with CaMK2A+/- mice [4] (CaMK2A+/- mice, 0.1 mg/kg, ip, p<0.001), “completely rescued”. The Y maze performance entry with 16p11.2DUP mice [3] and in the experiment on CaMK2A+/- mice [5] was “completely rescued” throughout. The “Discrimination index, rescue of NOR deficit, single agent at the dose used in the combination” value in the experiment on CaMK2A+/- mice [4] is “sub-effective”. Further, the Memory deficit entry in experiment [6] is on record as “significantly rescued”. The “PCP-induced increase in locomotor activity” value with scPCP-treated mice (PCP 10 mg/kg) is reported as “significantly blocked”. Further, the “Amphetamine-induced increase in locomotor activity” value in the experiment on scPCP-treated mice (amphetamine 2.5 mg/kg) is “significantly blocked”. Moreover, the “Development of cognitive impairment” value in experiment [7] is “prevented”. For the same molecule, the Social interaction result in the experiment on PCP treated mouse was “effective”.

On to `Cc1nc2n(c(=O)c1CCN1CCC(c3noc4cc(F)ccc34)CC1)CCCC2` [risperidone], for which the “Discrimination index, rescue of NOR deficit, single agent at the dose used in the combination” value with CaMK2A+/- mice [4] was “ineffective”.
